Source: ChEMBL document CHEMBL4152218, “Novel hydrazide-hydrazone and amide substituted coumarin derivatives: Synthesis, cytotoxicity screening, microarray, radiolabeling and in vivo pharmacokinetic studies” (Eur J Med Chem, 2018)

How the values were obtained:
TERT-RPE1 [1] = experiment: Cytotoxicity against hTERT-RPE1 cells at 12.50 uM after 48 hrs by resazurin dye-based fluorescence assay relative to control; format: cell-based; settings: human, tert-rpe1, 48 h, 12.5 µM
CCRF-CEM = experiment: Antiproliferative activity against human CCRF-CEM cells after 48 hrs by resazurin dye-based fluorescence assay; format: functional, cell-based
PANC-1 = experiment: Antiproliferative activity against human PANC1 cells after 48 hrs by resazurin dye-based fluorescence assay; format: functional, cell-based; settings: PANC-1, 48 h
[2] = Selectivity index, ratio of IC50 for hTERT-RPE1 cells to IC50 for human HepG2 cells; format: toxicity; settings: hTERT-RPE1 cells versus HepG2 cells, read-out: Ratio IC50
TERT-RPE1 [3] = experiment: Cytotoxicity against hTERT-RPE1 cells after 48 hrs by resazurin dye-based fluorescence assay; format: cell-based; settings: Homo sapiens, RPE-1, 48 h
[4] = Selectivity index, ratio of IC50 for hTERT-RPE1 cells to IC50 for human CCRF-CEM cells; format: toxicity; settings: hTERT-RPE1 cells versus CCRF-CEM cells, read-out: Ratio IC50
hTERT-BJ [5] = experiment: Cytotoxicity against hTERT-BJ cells after 48 hrs by resazurin dye-based fluorescence assay; format: cell-based; settings: Homo sapiens
hTERT-BJ [6] = experiment: Cytotoxicity against hTERT-BJ cells at 25 uM after 48 hrs by resazurin dye-based fluorescence assay relative to control; format: cell-based; settings: human
hTERT-BJ [7] = experiment: Cytotoxicity against hTERT-BJ cells at 12.50 uM after 48 hrs by resazurin dye-based fluorescence assay relative to control; format: cell-based; settings: human, 12.5 µM
TERT-RPE1 [8] = experiment: Cytotoxicity against hTERT-RPE1 cells at 50 uM after 48 hrs by resazurin dye-based fluorescence assay relative to control; format: cell-based; settings: human, tert-rpe1, 48 h
[9] = Selectivity index, ratio of IC50 for hTERT-BJ cells to IC50 for human HepG2 cells; format: toxicity; settings: hTERT-BJ cells versus HepG2 cells, read-out: Ratio IC50
hTERT-BJ [10] = experiment: Cytotoxicity against hTERT-BJ cells at 6.25 uM after 48 hrs by resazurin dye-based fluorescence assay relative to control; format: cell-based; settings: human
[11] = Selectivity index, ratio of IC50 for hTERT-BJ cells to IC50 for human CCRF-CEM cells; format: toxicity; settings: hTERT-BJ cells versus CCRF-CEM cells, read-out: Ratio IC50
HepG2 = experiment: Antiproliferative activity against human HepG2 cells after 48 hrs by resazurin dye-based fluorescence assay; format: functional, cell-based; settings: HepG2, 48 h
[12] = Selectivity index, ratio of IC50 for hTERT-RPE1 cells to IC50 for human PANC1 cells; format: toxicity; settings: hTERT-RPE1 cells versus PANC1 cells, read-out: Ratio IC50
hTERT-BJ [13] = experiment: Cytotoxicity against hTERT-BJ cells at 50 uM after 48 hrs by resazurin dye-based fluorescence assay relative to control; format: cell-based; settings: human
TERT-RPE1 [14] = experiment: Cytotoxicity against hTERT-RPE1 cells at 25 uM after 48 hrs by resazurin dye-based fluorescence assay relative to control; format: cell-based; settings: human, tert-rpe1, 48 h
TERT-RPE1 [15] = experiment: Cytotoxicity against hTERT-RPE1 cells at 6.25 uM after 48 hrs by resazurin dye-based fluorescence assay relative to control; format: cell-based; settings: human, tert-rpe1, 48 h
[16] = Selectivity index, ratio of IC50 for hTERT-BJ cells to IC50 for human PANC1 cells; format: toxicity; settings: hTERT-BJ cells versus PANC1 cells, read-out: Ratio IC50

SMILES	Activity (TERT-RPE1 [1]) [%]	IC50 (CCRF-CEM) [µM]	IC50 (PANC-1) [µM]	selectivity ratio [2]	IC50 (TERT-RPE1 [3]) [µM]	selectivity ratio [4]	IC50 (hTERT-BJ [5]) [µM]	Activity (hTERT-BJ [6]) [%]	Activity (hTERT-BJ [7]) [%]	Activity (TERT-RPE1 [8]) [%]	selectivity ratio [9]	Activity (hTERT-BJ [10]) [%]	selectivity ratio [11]	IC50 (HepG2) [µM]	selectivity ratio [12]	Activity (hTERT-BJ [13]) [%]	Activity (TERT-RPE1 [14]) [%]	Activity (TERT-RPE1 [15]) [%]	selectivity ratio [16]
O=C(N/N=C/c1cccnc1)c1cc2ccc(O)cc2oc1=O	12.79	14.1	2.52	> 2.72	> 50	> 3.55	> 50	1.99	1.26	20.79	> 2.72	0.5	> 3.55	18.4	> 19.8	2.27	14.34	8.83	> 19.8
O=C(N/N=C/c1ccncc1)c1cc2ccccc2oc1=O	4.08	3.11	9.75	> 2.91	> 50	> 16.1	> 50	3.9	1.23	13.73	> 2.91	0.6	> 16.1	17.2	> 5.13	1.73	12.2	0.65	> 5.13
CCOc1ccc(NC(=O)c2cc3cc([N+](=O)[O-])ccc3oc2=O)cc1	6.01	13.2	12.1	> 1.77	> 50	> 3.78	> 50	5.22	1.66	9.35	> 1.77	3.1	> 3.78	28.3	> 4.13	6.11	8.22	5.12	> 4.13
Cc1noc(NS(=O)(=O)c2ccc(NC(=O)c3cc4ccc(O)cc4oc3=O)cc2)c1C	5.89	21.5	16.2	> 1.29	> 50	> 2.33	> 50	3.63	3.52	5.78	> 1.29	1.17	> 2.33	38.8	> 3.09	5	5.92	0.99	> 3.09
Cc1noc(NS(=O)(=O)c2ccc(NC(=O)c3cc4cc(Br)ccc4oc3=O)cc2)c1C	10.36	14.6	28.7	> 5.68	> 50	> 3.43	> 50	3.04	1.2	26.26	> 5.68	0.95	> 3.43	8.8	> 1.74	13.26	12.79	1.84	> 1.74
CCOc1ccc(NC(=O)c2cc3ccccc3oc2=O)cc1	12.77	17.9	13.4	> 4.83	> 50	> 2.79	> 50	2.82	2.4	23.27	> 4.83	0.59	> 2.79	10.4	> 3.74	3.08	22.19	7.48	> 3.74
O=C(N/N=C/c1ccncc1)c1cc2cc([N+](=O)[O-])ccc2oc1=O	10.1	13	26.1	> 3.15	> 50	> 3.86	> 50	6.48	5.5	13.97	> 3.15	0.78	> 3.86	15.8	> 1.92	7.55	11.23	6.97	> 1.92
CCOc1ccc(NC(=O)c2cc3ccc(O)cc3oc2=O)cc1	13.91	12.6	14.3	> 2.88	> 50	> 3.97	> 50	30.03	15.98	36.28	> 2.88	10.17	> 3.97	17.3	> 3.5	31.23	19.22	11.23	> 3.5
CCOc1ccc2nc(Cl)c(/C=N/NC(=O)c3cc4ccc(O)cc4oc3=O)cc2c1	8.35	17.1	0.129	> 2.6	> 50	> 2.92	> 50	2.26	1.47	13.99	> 2.6	3.67	> 2.92	19.2	> 388	5.63	8.85	3.51	> 388
COc1cccc2c1C(=O)c1c(O)c3c(c(O)c1C2=O)C[C@@](O)(C(=O)CO)C[C@@H]3O[C@H]1C[C@H](N)[C@H](O)[C@H](C)O1 [DOXORUBICIN]		1.05	6.9	< 1.15	< 6.25	< 5.95	< 6.25				< 1.15		< 5.95	5.43	< 0.91				< 0.91
